This is an account of results in ChEMBL document CHEMBL1124906, “5'-O-phosphonomethyl-2',3'-dideoxynucleosides: synthesis and anti-HIV activity” (J Med Chem, 1990).

Test [1] deals with MT4. The test can be described thus: Effective concentration achieving 50% protection of MT-4 cells against the cytopathic effect of HIV-1. In kind it is functional, cell-based, Homo sapiens.
Test [2] relates to MT4. The test can be described thus: Cytotoxic concentration required to reduce the viability of normal uninfected MT-4 cells by 50%. In kind it is functional, Homo sapiens.
Test [3] is described as follows: Selectivity index is the ratio of CC50 to EC50. Type of test: functional.
In test [4] the target is Human immunodeficiency virus type 1 reverse transcriptase (Human immunodeficiency virus 1, UniProt Q72547). The test is described as follows: Compound was evaluated for the 50% inhibitory concentration on human immunodeficiency virus associated reverse transcriptase.

The structures appear in SMILES notation.

Usually EC50 stands for the concentration needed to bring the measured effect to its halfway point. One may read the CC50 as the concentration giving 50% cytotoxicity. Turning to `Cc1cn([C@H]2C[C@H](N)[C@@H](COCP(=O)(O)O)O2)c(=O)[nH]c1=O`, the half-maximal effective concentration (EC50) in the test with MT4 [1] (Homo sapiens, MT4) is above 500 µM. The compound also came in with a CC50 in the test on MT4 [2] (Homo sapiens, MT4) above 500 µM. For the same compound, the SI in test [3] is above 1.

In the test on MT4 [1] (Homo sapiens, MT4), `CCOP(=O)(O)COC[C@@H]1CC[C@H](N2CCC(=N)NC2=O)O1` returned an EC50 above 500 µM. Further, the CC50 with MT4 [2] (Homo sapiens, MT4) is above 500 µM.

The compound `Cc1cn([C@H]2C[C@H](F)[C@@H](COCP(=O)(O)O)O2)c(=O)[nH]c1=O` gave an EC50 in the test on MT4 [1] (Homo sapiens, MT4) of 0.9 µM. In addition, the cytotoxic concentration (CC50) in the test with MT4 [2] (Homo sapiens, MT4) came out at 17.3 µM. Further, in test [3], the SI came to 19.

Consider `CO[C@H]1C[C@H](n2cc(C)c(=O)[nH]c2=O)O[C@@H]1COCP(=O)(O)O`, for which a half-maximal response in the test with MT4 [1] (Homo sapiens, MT4) (EC50) required 500 µM. In the test on MT4 [2] (Homo sapiens, MT4), this compound yielded a half-maximal cytotoxic concentration (CC50) above 500 µM. Besides, in test [3], the SI is above 1.

Consider `Cc1cn([C@H]2C[C@H](N=[N+]=[N-])[C@@H](CO)O2)c(=O)[nH]c1=O` [ZIDOVUDINE], for which, in the test with MT4 [1] (Homo sapiens, MT4), a half-maximal response (EC50) required 0.003 µM. Besides, the midpoint of cytotoxicity with MT4 [2] (Homo sapiens, MT4), the CC50, lay at 4.8 µM. Also, in test [3], the SI turned out to be 1600.

`Nc1ccn([C@H]2CC[C@@H](COCP(=O)(O)O)O2)c(=O)n1`: the concentration giving a half-maximal response (EC50) in the test on MT4 [1] (Homo sapiens, MT4) is above 500 µM. For the same compound, the CC50 with MT4 [2] (Homo sapiens, MT4) is above 500 µM. In addition, the SI in test [3] is above 1.

On to `Cc1cn([C@H]2C[C@H](F)[C@@H](CO)O2)c(=O)[nH]c1=O` [ALOVUDINE], for which the EC50 with MT4 [1] (Homo sapiens, MT4) is 0.001 µM. Also, the SI in test [3] amounted to 197.

In the test on MT4 [1] (Homo sapiens, MT4), `Cc1cn([C@H]2C[C@H](N=[N+]=[N-])[C@@H](COCP(=O)(O)O)O2)c(=O)[nH]c1=O` came in with a concentration giving a half-maximal response (EC50) of 1.28 µM. In the test with MT4 [2] (Homo sapiens, MT4), this compound gave a 50% cytotoxic concentration (CC50) of 161 µM. Further, the SI in test [3] was 125.

Usually IC50 stands for the concentration at which inhibition is half-maximal. Higher therefore signals lower potency. In test [4], `CC1CN([C@H]2C[C@H](N=[N+]=[N-])[C@@H](COCP(=O)(O)OP(=O)(O)OP(=O)(O)O)O2)C(=O)NC1=O` (some centres undefined) gave a half-maximal inhibitory concentration (IC50) of 322 µM.

With `Cc1cn([C@H]2C[C@H](N=[N+]=[N-])[C@@H](COCP(=O)(O)OP(=O)(O)OP(=O)(O)O)O2)c(=O)[nH]c1=O`, in the test on MT4 [1] (Homo sapiens, MT4), the EC50 was found to be 1.15 µM. In the test on MT4 [2] (Homo sapiens, MT4), this compound showed a CC50 of 0.023 µM.

Take `O=c1ccn([C@H]2CC[C@@H](COCP(=O)(O)O)O2)c(=O)[nH]1`: the EC50 in the test with MT4 [1] (Homo sapiens, MT4) was found to be 90 µM. The compound further showed a 50% cytotoxic concentration (CC50) with MT4 [2] (Homo sapiens, MT4) above 500 µM. Moreover, the SI in test [3] is above 5.

`Cc1cn([C@H]2C[C@H](F)[C@@H](COCP(=O)(O)OP(=O)(O)OP(=O)(O)O)O2)c(=O)[nH]c1=O` (stereo in doubt; 30) displayed an EC50 in the test on MT4 [1] (mt4) of 100 µM. This compound had a cytotoxic concentration (CC50) in the test with MT4 [2] above 500 µM. Further, the SI in test [3] is above 5.

As to `Cc1cn([C@H]2CC[C@@H](COCP(=O)(O)O)O2)c(=O)[nH]c1=O`, it took 500 µM to reach a half-maximal effect in the test with MT4 [1] (Homo sapiens, MT4) (EC50). The same compound had a CC50 with MT4 [2] (Homo sapiens, MT4) above 500 µM. Also, in test [3], the SI was above 1.
